The text below walks through data of ChEMBL document CHEMBL3763140, “Discovery of 5-aryl-1,3-dihydro-2H-imidazo[4,5-b]pyridin-2-ones as positive allosteric modulators of metabotropic glutamate subtype-2 (mGlu2) receptors with efficacy in a preclinical model of psychosis” (Bioorg Med Chem Lett, 2016).

Converted amounts (≈) assume the structure as drawn.

Series [1] can be described thus: physchem. The following applies: buffer, pH 7.
In series [2] the test system is MDR1a (P-glycoprotein). Description: Apparent permeability across pig LLC-PK cells expressing human/rat MDR1a. Type of series: ADME, cell-based, Sus scrofa. The following applies: LLC-PK1.
The test system of series [3] is Cerebrospinal fluid. Description: Drug uptake in cerebro spinal fluid of MK801 stimulated Sprague-Dawley rat hyperlocomotion model at 10 mg/kg, po. The format is ADME, organism-based. The following applies: in vivo, read-out: Drug uptake.
Series [4] in a line: Total clearance in iv dosed Wistar Hannover rat administered as single dose measured up to 24 hrs. Type of series: ADME, organism-based. The following applies: in vivo.
The subject of series [5] is Cerebrospinal fluid. The series is described as follows: Drug uptake in cerebro spinal fluid of PCP stimulated Sprague-Dawley rat hyperlocomotion model at 10 mg/kg, po. Type of series: ADME, organism-based. The following applies: in vivo, read-out: Drug uptake.
The test system of series [6] is Cerebrospinal fluid. The series is described as follows: Drug uptake in cerebro spinal fluid of MK801 stimulated Sprague-Dawley rat hyperlocomotion model at 100 mg/kg, po. Type of series: ADME, organism-based. The following applies: in vivo, read-out: Drug uptake.
A short description of series [7]: Total plasma concentration in MK801 stimulated Sprague-Dawley rat hyperlocomotion model at 30 mg/kg, po after 2 hrs. The format is ADME, organism-based.
In series [8] the test system is Plasma. Description: Unbound plasma concentration in MK801 stimulated Sprague-Dawley rat hyperlocomotion model at 30 mg/kg, po after 2 hrs. The format is ADME, organism-based. The following applies: in vivo.
For series [9], the system named is Plasma. The series is described as follows: Unbound plasma concentration in PCP stimulated Sprague-Dawley rat hyperlocomotion model at 10 mg/kg, po after 2 hrs. The format is ADME, organism-based. The following applies: in vivo.
Series [10] relates to Plasma. Description: Unbound plasma concentration in PCP stimulated Sprague-Dawley rat hyperlocomotion model at 30 mg/kg, po after 2 hrs. Type of series: ADME, organism-based. The following applies: in vivo.
Series [11] can be described thus: Total plasma concentration in PCP stimulated Sprague-Dawley rat hyperlocomotion model at 10 mg/kg, po after 2 hrs. The format is ADME, organism-based.
The test system of series [12] is Plasma. Description: Unbound plasma concentration in MK801 stimulated Sprague-Dawley rat hyperlocomotion model at 10 mg/kg, po after 2 hrs. The format is ADME, organism-based. The following applies: in vivo.
Series [13] in a line: Total plasma concentration in PCP stimulated Sprague-Dawley rat hyperlocomotion model at 30 mg/kg, po after 2 hrs. Type of series: ADME, organism-based.
The subject of series [14] is Rattus norvegicus. The series is described as follows: Intrinsic clearance in iv dosed Wistar Hannover rat administered as single dose measured up to 24 hrs. Type of series: ADME, organism-based. The following applies: in vivo.
Series [15] can be described thus: in vivo. The following applies: Wistar Hannover, rat, 10 mg/kg.
Series [16] in a line: Oral bioavailability in Wistar Hannover rat at 10 mg/kg administered as single dose measured up to 24 hrs. The format is ADME, organism-based. The following applies: in vivo.
Series [17] is described as follows: Total plasma concentration in MK801 stimulated Sprague-Dawley rat hyperlocomotion model at 100 mg/kg, po after 2 hrs. Type of series: ADME, organism-based.
Series [18] is described as follows: Half life in iv dosed Wistar Hannover rat administered as single dose measured up to 24 hrs. Type of series: ADME, organism-based. The following applies: in vivo.
Series [19] has as its system Cerebrospinal fluid. Description: Drug uptake in cerebro spinal fluid of PCP stimulated Sprague-Dawley rat hyperlocomotion model at 30 mg/kg, po. The format is ADME, organism-based. The following applies: in vivo, read-out: Drug uptake.
For series [20], the system named is Cerebrospinal fluid. Description: Drug uptake in cerebro spinal fluid of MK801 stimulated Sprague-Dawley rat hyperlocomotion model at 30 mg/kg, po. The following applies: in vivo, read-out: Drug uptake. The format is ADME, organism-based.
Series [21] relates to Cerebrospinal fluid. The series is described as follows: Drug uptake in cerebro spinal fluid of PCP stimulated Sprague-Dawley rat hyperlocomotion model at 100 mg/kg, po. The format is ADME, organism-based. The following applies: in vivo, read-out: Drug uptake.
In series [22] the test system is Plasma. Description: Unbound plasma concentration in PCP stimulated Sprague-Dawley rat hyperlocomotion model at 100 mg/kg, po after 2 hrs. Type of series: ADME, organism-based. The following applies: in vivo.
Series [23] has as its system Plasma. The series is described as follows: Unbound plasma concentration in MK801 stimulated Sprague-Dawley rat hyperlocomotion model at 100 mg/kg, po after 2 hrs. Type of series: ADME, organism-based. The following applies: in vivo.
Series [24] is described as follows: Total plasma concentration in MK801 stimulated Sprague-Dawley rat hyperlocomotion model at 10 mg/kg, po after 2 hrs. Type of series: ADME, organism-based.
Series [25] is described as follows: Total plasma concentration in PCP stimulated Sprague-Dawley rat hyperlocomotion model at 100 mg/kg, po after 2 hrs. Type of series: ADME, organism-based.

A word on the solubility: it is how much of the substance goes into solution per volume. Take `Cn1c(=O)n(CC(C)(C)C)c2ccc(-c3ccc(S(C)(=O)=O)cc3)nc21`: the solubility in [1] came out at 7 µM (≈ 2.61 µg/mL).
As a reminder, the Papp is the rate of passage across a membrane or cell layer, normalised by area and donor concentration. The clearance is the rate of elimination divided by the concentration. By Cmax is commonly meant the peak of the concentration-time curve. One may read the bioavailability as dose-corrected exposure relative to a reference, in per cent. Read a low bioavailability as little systemic uptake. One may read the half-life as how long it takes for the measured level to halve. Regarding `Cc1ccc(C(C)(C)O)cc1-c1ccc2c(n1)n(C)c(=O)n2CC(C)(C)C`, the Papp in series [2] is 310 nm/s. For the same molecule, the concentration in series [3] came out at 0.021 µM; in series [5], 0.026 µM; in [6] it was 0.711 µM; in series [19], 0.399 µM; in [20], 0.211 µM; in [21], 0.906 µM. Moreover, the clearance in series [4] came to 2.52 L/h/kg. Moreover, the concentration at 2 h is 6.7 µM in series [7]; 1.8 µM in series [11]; 8.5 µM in series [13]; 22 µM in series [17]; 1.4 µM in series [24]; 25 µM in series [25]. The “Cp(f)” value in [8] is 201 µM; in series [9] it was 54 µM; in series [10], 255 µM; in series [12], 42 µM; in [22], 750 µM; in [23], 660 µM. Besides, the CL in series [14] was found to be 168 L/h/kg. In [15], this molecule showed a Cmax at 24 h of 1.5 µM. This molecule also registered a bioavailability in [16] of 47%. Moreover, the half-life in series [18] was 58.8 min. In series [1], the solubility was 147 µM (≈ 54 µg/mL).
